In PMC6968511 (Journal of Enzyme Inhibition and Medicinal Chemistry, 2019):

Assays:
[1] = Solubility in water; assay type: physicochemical
[2] = MTT cytotoxicity assay; assay type: cell-based, human; details: human, HCEC (human corneal epithelial) cells
[3] = tested on: HCEC (human corneal epithelial cell); experiment: MTT cytotoxicity assay; assay type: cell-based; details: MTT, tested up to 100 μM (data not shown)
[4] = tested on: HepG2 (human liver carcinoma); experiment: MTT cytotoxicity assay; assay type: cell-based; details: tested up to 100 μM (data not shown)
[5] = tested on: HT-29 (human colorectral cancer); experiment: MTT cytotoxicity assay; assay type: cell-based; details: tested up to 100 μM (data not shown)
[6] = tested on: H9C2 (normal, rat myocytes); experiment: MTT cytotoxicity assay; assay type: cell-based; details: tested up to 100 μM (data not shown)
[7] = tested on: hypertensive rabbits; experiment: Hypertensive rabbit IOP lowering study; assay type: in vivo; details: topical
[8] = one drop (50 μL) of 1% solution (BRZ 1% suspension)

Row | SMILES | Solubility [1] [%] | viability at 96 h, 1 % [2] [%] | viability at 96 h, 2 % [2] [%] | toxicity to HCEC cells [3] | toxicity to HepG2 cells [4] | toxicity to HT-29 cells [5] | toxicity to H9C2 cells [6] | return to basal IOP values ([7]; 1% suspension) [h] | maximal IOP lowering [7, 8] | time of maximal IOP lowering effect post-administration [7, 8] [h]
1 | CC(=O)Nc1nnc(S(N)(=O)=O)s1 [AAZ, acetazolamide] | 0.21 | 80 | 10 | did not display any appreciable toxicity | did not display any appreciable toxicity | did not display any appreciable toxicity | did not display any appreciable toxicity | – | – | –
2 | CCN[C@H]1CN(CCCOC)S(=O)(=O)c2sc(S(N)(=O)=O)cc21 [BRZ, brinzolamide] | 0.05 | 40 | – | did not display any appreciable toxicity | did not display any appreciable toxicity | did not display any appreciable toxicity | did not display any appreciable toxicity | 3 | around 5 mm Hg | 1
3 | CCN[C@H]1C[C@H](C)S(=O)(=O)c2sc(S(N)(=O)=O)cc21 [DZA, dorzolamide] | 0.67 | – | – | – | – | – | – | – | – | –
